Measurements: publication PMC9737648, “Novel Approaches for the Solid-Phase Synthesis of Dihydroquinazoline-2(1H)-One Derivatives and Biological Evaluation as Potential Anticancer Agents” (Molecules, 2022)

How the values were obtained:
[1] = tested on: human hepatic stellate cells (LX-2); experiment: MTT cytotoxicity assay, LX-2 normal control; type: cell-based; conditions: 72-h incubation
Method: (§1) The above cells were tested for cytotoxicity to identify the most promising antitumor drug among the synthesized quinazolinone derivatives.
(§2) An MTT assay was used to evaluate the in vitro cytotoxicity of the new compounds. The MTT assay depends on the reduction of soluble 3-([…])-2,5-diphenyl-tetrazolium bromide (MTT) into a blue purple formazan product, mainly by mitochondrial reductase activity inside living cells. […] The cells were suspended in growth medium and plated in 96-well culture plates at a density of 4 × 10^4 cells/well and incubated at 37 °C in a 5% CO2 incubator. […] Each experiment was performed at least 3 times.

[2] = DPPH• free radical scavenging assay; conditions: for IC50: concentration required to scavenge 50% of the DPPH, 30 min in the dark; for antioxidant activity (in words): DPPH assay
Method: The quinazolinone derivatives were evaluated for their free radical scavenging activity at 320, 160, 80, 40, 20, and 10 µM concentration using the DPPH radical method, with ascorbic acid as the positive control (Table 3).
The antiradical activity of the compounds was estimated according to a slight modification of the procedure reported by Morales and Jimenez-Perez. […] Each sample (100 μL) at a different concentration was added to a freshly prepared solution of 1,1-diphenyl-2-picrylhydrazyl (DPPH•) radical (0.2 mM, 100 μL). The mixtures (200 μL) were placed in a 96-well microplate, shaken vigorously, and then left to stand for 30 min in the dark. Then, absorbance was immediately measured at a wavelength of 517 nm. Vc was used as the standard. The antiradical activity for each compound was determined in the Vc equivalent antioxidant capacity. The DPPH• solution in the presence of ethanol and in the absence of compounds was tested and used as a negative control. […] In all experiments, the samples were analyzed in triplicate, and activity for each compound was presented as the mean value ± SEM and used for evaluation of structure–activity relationships. […] Absorbance was taken at 520 nm using a microplate reader (Tecan, Männedorf, Switzerland).

[3] = tested on: breast cancer cells (MDA-MB-231); experiment: MTT cytotoxicity assay, MDA-MB-231; type: cell-based, human; conditions: 72-h incubation
Method: as §1, §2

[4] = tested on: human liver cancer cells (HepG-2); experiment: MTT cytotoxicity assay, HepG-2; type: cell-based; conditions: 72-h incubation
Method: as §1, §2

[5] = tested on: ovarian cancer cells (A2780); experiment: MTT cytotoxicity assay, A2780; type: cell-based, human; conditions: 72-h incubation
Method: as §1, §2

Compound | IC50 [2] [µM] | IC50 [1] [µM] | IC50 [3] [µM] | IC50 [4] [µM] | IC50 [5] [µM] | IC50 ([1]; Homo sapiens) [µM] | IC50 ([3]; Homo sapiens) [µM] | IC50 ([4]; Homo sapiens, HepG2, 72 h) [µM] | IC50 ([5]; Homo sapiens, A2780, 72 h) [µM] | antioxidant activity (in words) [2]
4-{2-{1-(3-ammoniopropyl)-2-oxo-6-[2-(thiophen-2-yl)acetamido]-1,2,3,4-tetrahydroquinazolin-4-yl}acetamido}-4-carbamoylpiperidin-1-aminium 2,2,2-trifluoroacetate [CA5] | 465 ± 8.61 | > 100 | 74.81 ± 0.27 | 65.5 ± 3.16 | 32.3 ± 6.21 | – | – | – | – | –
NCCCN1C(=O)NC(CC(=O)NC(CO)C(N)=O)c2cc([N+](=O)[O-])ccc21 (centres unmarked) [CA1-6, 3-{4-{2-[(1-amino-3-hydroxy-1-oxopropan-2-yl)amino]-2-oxoethyl}-6-nitro-2-oxo-3,4-dihydroquinazolin-1(2H)-yl}propan-1-aminium 2,2,2-trifluoroacetate] | > 1000 | – | – | – | – | 97.9 ± 15.6 | 81.2 ± 1.54 | 52.3 ± 3.45 | 83.2 ± 2.69 | –
NCCCN1C(=O)NC(CC(=O)NC(CO)C(N)=O)c2cc(N)ccc21 (centres unmarked) [CA1-7, 4-{2-[(1-amino-3-hydroxy-1-oxopropan-2-yl)amino]-2-oxoethyl}-1-(3-ammoniopropyl)-2-oxo-1,2,3,4-tetrahydroquinazolin-6-aminium 2,2,2-trifluoroacetate] | 57.99 ± 0.38 | – | – | – | – | > 100 | 90.1 ± 10.9 | 59.3 ± 1.85 | 79.8 ± 1.01 | –
NCCCN1C(=O)NC(CC(=O)NC(CO)C(N)=O)c2cc(NC(=O)c3ccncc3)ccc21 (centres unmarked) [CA1-a, 3-{4-{2-[(1-amino-3-hydroxy-1-oxopropan-2-yl)amino]-2-oxoethyl}-6-(isonicotinamido)-2-oxo-3,4-dihydroquinazolin-1(2H)-yl}propan-1-aminium 2,2,2-trifluoroacetate] | > 1000 | – | – | – | – | > 100 | 86 ± 2.06 | 54.4 ± 3.45 | 80 ± 2.15 | –
NCCCN1C(=O)NC(CC(=O)NC(CO)C(N)=O)c2cc(NC(=O)c3ccccc3)ccc21 (centres unmarked) [CA1-b, 3-{4-{2-[(1-amino-3-hydroxy-1-oxopropan-2-yl)amino]-2-oxoethyl}-6-benzamido-2-oxo-3,4-dihydroquinazolin-1(2H)-yl}propan-1-aminium 2,2,2-trifluoroacetate] | > 1000 | – | – | – | – | 85.8 ± 4.28 | 76.6 ± 2.42 | 60.1 ± 3.88 | > 100 | –
Cc1ccc(C(=O)Nc2ccc3c(c2)C(CC(=O)NC(CO)C(N)=O)NC(=O)N3CCCN)cc1 (centres unmarked) [CA1-c, 3-{4-{2-[(1-amino-3-hydroxy-1-oxopropan-2-yl)amino]-2-oxoethyl}-6-(4-methylbenzamido)-2-oxo-3,4-dihydroquinazolin-1(2H)-yl}propan-1-aminium 2,2,2-trifluoroacetate] | 387 ± 58.8 | – | – | 48.1 ± 2.34 | – | 85.4 ± 1.78 | 92.4 ± 4.91 | < 50 | > 100 | –
NCCCN1C(=O)NC(CC(=O)NC(CO)C(N)=O)c2cc(NC(=O)c3ccc(F)cc3)ccc21 (centres unmarked) [CA1-d, 3-{4-{2-[(1-amino-3-hydroxy-1-oxopropan-2-yl)amino]-2-oxoethyl}-6-(4-fluorobenzamido)-2-oxo-3,4-dihydroquinazolin-1(2H)-yl}propan-1-aminium 2,2,2-trifluoroacetate] | > 1000 | – | – | 49.6 ± 1.91 | – | > 100 | 85.7 ± 4.87 | < 50 | 88.3 ± 8.56 | –
NCCCN1C(=O)NC(CC(=O)NC(CO)C(N)=O)c2cc(NC(=O)c3cccnc3)ccc21.O=C(O)C(F)(F)F (centres unmarked) [CA1-e, 3-{4-{2-[(1-amino-3-hydroxy-1-oxopropan-2-yl)amino]-2-oxoethyl}-6-(nicotinamido)-2-oxo-3,4-dihydroquinazolin-1(2H)-yl}propan-1-aminium 2,2,2-trifluoroacetate] | > 1000 | – | – | 37.6 ± 5.53 | 22.76 ± 0.22 | > 100 | 85.7 ± 5.3 | < 50 | < 40 | no antioxidant activity
NCCCN1C(=O)NC(CC(=O)NC(CO)C(N)=O)c2cc(NC(=O)c3ccccn3)ccc21 (centres unmarked) [CA1-f, 3-{4-{2-[(1-amino-3-hydroxy-1-oxopropan-2-yl)amino]-2-oxoethyl}-2-oxo-6-(picolinamido)-3,4-dihydroquinazolin-1(2H)-yl}propan-1-aminium 2,2,2-trifluoroacetate] | > 1000 | – | – | 44.4 ± 2.2 | – | 97 ± 4.24 | 81.3 ± 1.21 | < 50 | > 100 | –
NCCCN1C(=O)NC(CC(=O)NC(CO)C(N)=O)c2cc(NC(=O)COc3ccccc3)ccc21.O=C(O)C(F)(F)F (centres unmarked) [CA1-g, 3-{4-{2-[(1-amino-3-hydroxy-1-oxopropan-2-yl)amino]-2-oxoethyl}-2-oxo-6-(2-phenoxyacetamido)-3,4-dihydroquinazolin-1(2H)-yl}propan-1-aminium 2,2,2-trifluoroacetate] | > 1000 | – | – | 45.4 ± 0.59 | 24.9 ± 7.22 | > 100 | 82.21 ± 0.59 | < 50 | < 40 | no antioxidant activity
NCCCN1C(=O)NC(CC(=O)NC(CO)C(N)=O)c2cc(NC(=O)CCc3cccnc3)ccc21 (centres unmarked) [CA1-h, 3-{4-{2-[(1-amino-3-hydroxy-1-oxopropan-2-yl)amino]-2-oxoethyl}-2-oxo-6-[3-(pyridin-3-yl)propanamido]-3,4-dihydroquinazolin-1(2H)-yl}propan-1-aminium 2,2,2-trifluoroacetate] | > 1000 | – | – | – | – | 97.5 ± 3.52 | 82.2 ± 11.4 | 56.93 ± 0.47 | 86.1 ± 3.73 | –
NCCCN1C(=O)NC(CC(=O)NC(CO)C(N)=O)c2cc(NC(=O)Cc3cccs3)ccc21 (centres unmarked) [CA1-i, 3-{4-{2-[(1-amino-3-hydroxy-1-oxopropan-2-yl)amino]-2-oxoethyl}-2-oxo-6-[2-(thiophen-2-yl)acetamido]-3,4-dihydroquinazolin-1(2H)-yl}propan-1-aminium 2,2,2-trifluoroacetate] | 557 ± 24.5 | – | – | – | 34.4 ± 5.61 | > 100 | 89.7 ± 3.79 | 49.77 ± 0.12 | < 40 | –

More lines, main results first:

IC50 [2] [µM] | Compound | IC50 [1] [µM] | IC50 [3] [µM] | IC50 [4] [µM] | IC50 [5] [µM] | IC50 ([1]; Homo sapiens) [µM] | IC50 ([3]; Homo sapiens) [µM] | IC50 ([4]; Homo sapiens, HepG2, 72 h) [µM] | IC50 ([5]; Homo sapiens, A2780, 72 h) [µM] | antioxidant activity (in words) [2]
> 1000 | COc1ccccc1S(=O)(=O)Nc1ccc2c(c1)C(CC(=O)NC(CO)C(N)=O)NC(=O)N2CCCN (centres unmarked) [CA1-j, 3-{4-{2-[(1-amino-3-hydroxy-1-oxopropan-2-yl)amino]-2-oxoethyl}-6-[(2-methoxyphenyl)sulfonamido]-2-oxo-3,4-dihydroquinazolin-1(2H)-yl}propan-1-aminium 2,2,2-trifluoroacetate] | – | – | – | – | > 100 | 76.3 ± 2.05 | 73.8 ± 1.03 | 83.6 ± 1.24 | –
> 1000 | CC(C)CCN1C(=O)NC(CC(=O)NC(CCCN)C(N)=O)c2cc(NC(=O)CCc3cccnc3)ccc21 (centres unmarked) [CA3, 5-amino-4-{2-{1-isopentyl-2-oxo-6-[3-(pyridin-3-yl)propanamido]-1,2,3,4-tetrahydroquinazolin-4-yl}acetamido}-5-oxopentan-1-aminium 2,2,2-trifluoroacetate] | – | – | – | – | > 100 | 86 ± 11.1 | 64.2 ± 4.69 | 82.9 ± 2.13 | –
951 ± 30.6 | CC(C)(NC(=O)CC1NC(=O)N(Cc2ccccc2)c2ccc(NC(=O)COc3ccccc3)cc21)C(N)=O (centres unmarked) [CA4, 2-{2-[1-benzyl-2-oxo-6-(2-phenoxyacetamido)-1,2,3,4-tetrahydroquinazolin-4-yl]acetamido}-2-methylpropanamide] | – | – | – | – | 72.9 ± 0.91 | 87.1 ± 4.47 | 72.7 ± 2.76 | 66.2 ± 4.1 | –
> 1000 | CN1C(=O)NC(CC(N)=O)c2cc(NC(=O)c3cccnc3)ccc21 (centres unmarked) [CA6-a, N-[4-(2-amino-2-oxoethyl)-1-methyl-2-oxo-1,2,3,4-tetrahydroquinazolin-6-yl]nicotinamide] | – | – | – | – | > 100 | > 100 | > 100 | > 100 | –
> 1000 | CN1C(=O)NC(CC(N)=O)c2cc(NC(=O)COc3ccccc3)ccc21 (centres unmarked) [CA6-b, N-[4-(2-amino-2-oxoethyl)-1-methyl-2-oxo-1,2,3,4-tetrahydroquinazolin-6-yl]-2-phenoxyacetamide] | – | – | – | – | > 100 | > 100 | 88 ± 1.39 | > 100 | –
> 1000 | COc1ccccc1S(=O)(=O)Nc1ccc2c(c1)C(CC(N)=O)NC(=O)N2C (centres unmarked) [CA7-a, 2-{6-[(2-methoxyphenyl)sulfonamido]-1-methyl-2-oxo-1,2,3,4-tetrahydroquinazolin-4-yl}acetamide] | – | – | – | – | > 100 | 87.7 ± 2.58 | 86.4 ± 3.42 | 82.9 ± 2.68 | –
22.5 ± 0.57 | O=C1O[C@H]([C@@H](O)CO)C(O)=C1O [Vc, ascorbic acid, reference compound] | – | – | – | – | – | – | – | – | –
